# Measured values: patent publication US8137977B2, “Lipidomic approaches to determining drug response phenotypes in cardiovascular disease” (Children's Hospital & Research Center at Oakland, priority 2007, dated 2012)
# Assay: Lipid profile changes (lipid classes and fatty acid composition) following simvastatin treatment, high vs low responders, PARC study
# Format: in vivo, human
# Conditions: 40 mg, 6 weeks vs baseline, high minus low, ANOVA
# Method: We evaluated lipid profiles of 48 subjects selected from the Pharmacogenetics and Risk of Cardiovascular Disease (PARC) study. Subjects were selected from the larger study population of 944 participants (335 African-Americans and 609 whites), with a baseline total serum cholesterol level of 160 to 400 mg/dl. Participants were followed for a total of 6 weeks on simvastatin therapy (40 mg at bedtime). Twenty-four subjects drawn from the top 10% of responders and 24 age-, gender-, and race-matched subjects from the bottom 10% of responders. Response was defined as percent change in LDL cholesterol from baseline to end of treatment. Samples used in this study were collected at baseline and at 6 weeks of therapy.
# Data Reporting. Lipids measured included, butyrobetaine, L-carnitine, cholesterol, cholesterol esters (CE), diglycerides (DG), free cholesterol (FC), free fatty acids (FA), lysophosphatidylcholine (LY), phosphatidylcholine (PC), phosphatidylethanolamine (PE) and triglycerides (TG). For CE, DG, FA, LY, PC, PE and TG lipid classes the following fatty acid components were quantified as a proportion of total fatty acids within the lipid class: 14:0, 15:0, 16:0, 18:0, 20:0, 22:0, 24:0, 14:1n5, 16:1n7, 18:1n7, 18:1n9, 20:1n9, 20:3n9, 22:1n9, 24:1n9, 18:2n6, 18:3n6, 20:2n6, 20:3n6, 20:4n6, 22:2n6, 22:4n6, 22:5n6, 18:3n3, 18:4n3, 20:3n3, 20:4n3, 20:5n3, 22:5n3, 22:6n3, 24:6n3, plasmalogen derivatives of 16:0, 18:0, 18:1n7 and 18:1n9, t16:1n7 t18:1n9 t18:2n6. The term “LC” indicates the value shown is the total concentration of the lipid class expressed as nMoles per gram of serum or plasma. Thus, the abbreviation PC18:2n6 indicates the percentage of plasma or serum phosphatidylcholine comprised of linoleic acid (18:2n6), and the term TGLC indicates the absolute amount of triglyceride present in plasma or serum.
# Statistical Methods. Before undertaking analysis, the data was cleaned by outlier removal and removal of uninformative metabolites. Outliers were identifies as those observation more than three standard deviations from the mean. Metabolites were determined to be uninformative if over ⅔rds of the observations were below the limit of detection and the pattern of observations falling below this limit was not related to the outcome.
# Results of t-tests were used in order to reduce the number of metabolites being modeled.
# A simple one-way ANOVA was used to evaluate the difference in lipid changes between high and low responders. From this analysis, contrasts were calculated for the comparison of low to high responders. In addition, an ANCOVA model was used to evaluate the difference in response adjusting for baseline concentrations of the metabolite and the time the samples were run. The outcome was change from baseline to post-treatment, baseline concentration was the covariate, response (high=1, low=0) and group (first=0, second=1) were included as factors, and an interaction term between baseline and response was included.
# The column labeled “estimate” is the difference between the change from pre to post in high and low responders (high minus low). The standard error, t-statistic, p-value, and 95% confidence bounds of this estimate are also included (Lower.CI and Upper.CI).
# [1] = proportion of fatty acids in lysophosphatidylcholine
# [2] = proportion of fatty acids in phosphatidylcholine
# [3] = proportion of fatty acids in phosphatidylethanolamine
# [4] = proportion of fatty acids in triglyceride
compound,measurement,setting,value
CCC(C)(C)C(=O)O[C@H]1C[C@@H](C)C=C2C=C[C@H](C)[C@H](CC[C@@H]3C[C@@H](O)CC(=O)O3)[C@H]21 [simvastatin],"Estimate, difference between change in high and low responders: DGLC (total diglyceride)",,2.4502 nMoles per gram of serum or plasma
same,"Estimate, difference between change in high and low responders: LY14.1n5",[1],0.0135 percentage
same,"Estimate, difference between change in high and low responders: LY16.0",[1],−1.1505 percentage
same,"Estimate, difference between change in high and low responders: LY18.0",[1],−1.1443 percentage
same,"Estimate, difference between change in high and low responders: LY18.1n9",[1],0.3099 percentage
same,"Estimate, difference between change in high and low responders: LY18.3n6",[1],0.0774 percentage
same,"Estimate, difference between change in high and low responders: LY20.4n3",[1],−0.019 percentage
same,"Estimate, difference between change in high and low responders: LY20.4n6",[1],0.1269 percentage
same,"Estimate, difference between change in high and low responders: LY20.5n3",[1],0.0994 percentage
same,"Estimate, difference between change in high and low responders: PC18.2n6",[2],−1.5254 percentage
same,"Estimate, difference between change in high and low responders: PC18.3n3",[2],−0.0498 percentage
same,"Estimate, difference between change in high and low responders: PC20.3n9",[2],−0.0509 percentage
same,"Estimate, difference between change in high and low responders: PC20.4n6",[2],1.1779 percentage
same,"Estimate, difference between change in high and low responders: PC22.6n3",[2],0.4153 percentage
same,"Estimate, difference between change in high and low responders: PE14.1n5",[3],0.0551 percentage
same,"Estimate, difference between change in high and low responders: PE18.0",[3],−2.0267 percentage
same,"Estimate, difference between change in high and low responders: PE18.2n6",[3],−1.036 percentage
same,"Estimate, difference between change in high and low responders: PE20.0",[3],0.0189 percentage
same,"Estimate, difference between change in high and low responders: PE20.3n6",[3],−0.4196 percentage
same,"Estimate, difference between change in high and low responders: PE20.4n3",[3],−0.0102 percentage
same,"Estimate, difference between change in high and low responders: PE22.5n3",[3],−0.1266 percentage
same,"Estimate, difference between change in high and low responders: TG18.3n3",[4],−0.0787 percentage
same,"Estimate, difference between change in high and low responders: TG18.3n6",[4],0.1008 percentage
same,"Estimate, difference between change in high and low responders: TG18.4n3",[4],0.0378 percentage
same,"Estimate, difference between change in high and low responders: TG20.3n9",[4],−0.0052 percentage
same,"Estimate, difference between change in high and low responders: TG20.4n3",[4],−0.0056 percentage
same,"Estimate, difference between change in high and low responders: TG20.4n6",[4],0.1005 percentage
same,"Estimate, difference between change in high and low responders: TG22.0",[4],0.0184 percentage
same,"Estimate, difference between change in high and low responders: TG22.4n6",[4],−0.0138 percentage
same,"Estimate, difference between change in high and low responders: TG22.5n6",[4],−0.0165 percentage
same,"Estimate, difference between change in high and low responders: FA20.0",proportion of free fatty acids,0.0159 percentage
same,"Estimate, difference between change in high and low responders: FA20.1n9",proportion of free fatty acids,0.0823 percentage
same,"Estimate, difference between change in high and low responders: FA22.1n9",proportion of free fatty acids,−0.0615 percentage
same,"Estimate, difference between change in high and low responders: FA22.2n6",proportion of free fatty acids,−0.0088 percentage
